Assay results reported in US10294217B2, “Fluoroindole derivatives as muscarinic M1 receptor positive allosteric modulators” (Suven Life Sciences Limited, priority 2015, dated 2019).
Read-outs that look alike come from different tables or passages of the source.

Key:
[1] = target: human Muscarinic M1 receptor (Homo sapiens (Human), UniProt P11229); test: Allosteric potency EC50 for muscarinic M1 receptor (CHO cells, pCRE-Luc reporter); format: cell-based; conditions: luciferase activity, 4 hours
Procedure, shortened: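 Positive allosteric modulation in stable CHO cells expressing human M1 and a CRE-luciferase reporter, serum-starved overnight. Test compound titrated with EC20 acetylcholine in OptiMEM, 4 h at 37 °C. After lysis, luminescence read; EC50 is concentration giving 50% stimulation of luciferase activity.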

Male Wistar rats [2] = test: Object recognition task model; format: in vivo; conditions: p.o.; for Exploration time Familiar object / Exploration time Novel object: mean ± S.E.M, choice trial 24 hours after T1
Experimental: Object Recognition Task Model
(§1) The cognition enhancing properties of compounds of this invention were estimated by using this model.
(§2) Male Wistar rats (8-10 weeks old) were used as experimental animals. Four animals were housed in each cage. Animals were kept on 20% food deprivation from a day prior to experimentation. Water was provided ad libitum throughout the experiment. Animals were maintained on a 12 hours light/dark cycle in temperature and humidity controlled room. The experiment was carried out in an open field made up of acrylic. Rats were habituated to individual arenas (open field) for 1 hour in the absence of any objects on day 1.
One group of 12 rats received vehicle and another set of animals received compound of the formula (I), before the familiar (T1) and choice (T2) trials. During the familiarization phase, (T1), the rats were placed individually in the arena for 3 minutes, in which two identical objects (a1 and a2) were positioned 10 cm from the wall. 24 hours after T1, trial for long-term memory test was performed. The same rats were placed in the same arena as they were placed in T1 trial. During the choice phase (T2) rats were allowed to explore the arena for 3 minutes in presence of a copy of familiar object (a3) and one novel object (b). During the T1 and T2 trial, explorations of each object (defined as sniffing, licking, chewing or having moving vibrissae whilst directing the nose towards the object at a distance of less than 1 cm) were recorded using stopwatch. • T1 is the total time spent exploring the familiar objects (a1+a2). • T2 is the total time spent exploring the familiar object and novel object (a3+b). • Discriminative index=Time spent with novel object/(time spent with novel and familiar object).
The object recognition test was performed as described by Behavioural Brain Research, 1988, 31, 47-59 and the results are provided in table 5.

Male Wistar rats [3] = test: Object recognition task model - scopolamine challenge; format: in vivo; conditions: p.o.; for Exploration time Familiar object / Exploration time Novel object: mean ± S.E.M, choice trial 3 minutes after T1
Experimental: Object Recognition Task Model—Scopolamine challenge
as §1, §2
Rats received vehicle or vehicle and scopolamine or compound of the formula (I) and scopolamine, before the familiar (T1). During the familiarization phase, (T1), the rats were placed individually in the arena for 3 minutes, in which two identical objects (a1 and a2) were positioned 10 cm from the wall. 3 minutes after T1, trial for memory test was performed. The same rats were placed in the same arena as they were placed in T1 trial. During the choice phase (T2) rats were allowed to explore the arena for 3 minutes in presence of a copy of familiar object (a3) and one novel object (b). During the T1 and T2 trial, explorations of each object (defined as sniffing, licking, chewing or having moving vibrissae whilst directing the nose towards the object at a distance of less than 1 cm) were recorded using stopwatch. • T1 is the total time spent exploring the familiar objects (a1+a2). • T2 is the total time spent exploring the familiar object and novel object (a3+b). • Discriminative index=Time spent with novel object/(time spent with novel and familiar object).

sAPPα = test: Estimation of cortical sAPPα levels in rat brain (ELISA); format: in vivo, Male Wistar rats; conditions: i.p.; for sAPPα levels: cortex, 60 minutes after treatment, mean ± SEM (n = 5/group); for Inference: cortical sAPPα levels, 1.0-10.0 mg/kg
Experimental: Estimation of Cortical sAPPα Levels in Rat Brain
Male Wistar rats (250±45 grams) were randomly divided into different treatment groups (n=5 per group). Control group of rats were administered with intraperitoneal (i.p.) injection of vehicle (99.75% of 0.25% hydroxyethylcellulose HHX+0.25% tween 80 for examples 8 and 22; 5% Pharmasolve+45% propylene glycol+50% polyethylene glycol-400 for example 1). Rats in treatment groups were allocated to one dose of test compound and administered with a single intraperitoneal injection of test compound (dose volume of 2 mL/kg). Rats were sacrificed by cervical dislocation at 60 minutes after treatment. Brains were quickly isolated and the cortex was dissected out at −20° C. The cortex was immediately kept on a dry ice and weighed before being stored at −80° C. until quantification of sAPPα using Enzyme-linked immunosorbent assay (ELISA).
• 1. Protease inhibitor cocktail tablets (complete mini, Make-Roche; 1 tablet for 8 mL) were added to the Tris Buffer Saline (TBS) prior to using the buffer for tissue processing. • 2. Cortical tissues were thawed and homogenized in five volumes of TBS and the solution was centrifuged at 15,000 rpm at 4° C. for 90 minutes. • 3. The supernatant was discarded and homogenized in five volumes of TBS. Samples were centrifuged at 15,000 rpm at 4° C. for 30 minutes. • 4. Supernatant was discarded and precipitate was sonicated in ten volumes of 50 mM Tris buffer (pH: 7.6) containing 6 M of Guanidine-HCl. Sonication was repeated four times with duration of five seconds every time. • 5. Resulting mixture was incubated at the room temperature for 30 minutes and centrifuged at 15,000 rpm at 4° C. for 30 minutes. Supernatant was diluted 100 times with EIA buffer prior to addition in the pre-coated ELISA plates. Measurement of sAPPα by ELISA Kit:
To investigate the role of an acute treatment of test compound on sAPPα levels, the expression of this protein was measured in samples obtained from brain homogenates of treated and untreated rats by employing ELISA assay. The entire procedure was followed as described in the ELISA kit manual (Mouse/Rat sAPPα (highly sensitive) assay kit, Catalog Number: JP27419, Immuno-Biological Laboratories Co. Ltd, Hamburg, Germany).
Statistical analyses were performed using the Graph Pad Prism (Version 4). Results are expressed as Mean±SEM levels of sAPPα expressed as percentage of control values obtained from rats treated with vehicle. Statistical significance after treatment was assessed using One-Way ANOVA followed by Dunnett's post test and the significance level was set below p value less than 0.05 and the results are tabulated in table 7.

[4] = in presence of EC20 of acetylcholine, read-out: hM1 PAM EC50

SMILES	Inference (Male Wistar rats [3]; 1 mg/kg)	Exploration time Familiar object (Male Wistar rats [3]; 1 mg/kg) [s]	Exploration time Novel object (Male Wistar rats [3]; 1 mg/kg) [s]	sAPPα levels (sAPPα; 1.0 mg/kg)	sAPPα levels (sAPPα; 3.0 mg/kg)	sAPPα levels (sAPPα; 10.0 mg/kg)	Inference (sAPPα)	EC50 [1, 4] [nM]	Inference (Male Wistar rats [2]; 0.3 mg/kg)	Exploration time Familiar object (Male Wistar rats [2]; 0.3 mg/kg) [s]	Exploration time Novel object (Male Wistar rats [2]; 0.3 mg/kg) [s]	Inference (Male Wistar rats [3]; 0.3 mg/kg)	Exploration time Familiar object (Male Wistar rats [3]; 0.3 mg/kg) [s]	Exploration time Novel object (Male Wistar rats [3]; 0.3 mg/kg) [s]	Inference (Male Wistar rats [2]; 1 mg/kg)	Exploration time Familiar object (Male Wistar rats [2]; 1 mg/kg) [s]	Exploration time Novel object (Male Wistar rats [2]; 1 mg/kg) [s]	also measured
Cl.O=C(N[C@H]1CCNC[C@H]1F)c1cn(Cc2ccnc(F)c2)c2c(F)ccc(F)c12 (single isomer, unassigned; isomer-i) [Example 22, Cis-N-(3-Fluoropiperidin-4-yl)-1-(2-fluoropyridin-4-ylmethyl)-4,7-difluoro-1H-indole-3-carboxamide hydrochloride (Isomer-I)]	Active	21.34 ± 3.65	29.70 ± 1.72	143 ± 14 % of vehicle	164 ± 12 % of vehicle	176 ± 10 % of vehicle	Active											EC50 ([1]; hM1 PAM EC50, in presence of EC20 of acetylcholine): 1490 nM; Inference (Male Wistar rats [2]; 3 mg/kg): Active; Exploration time Familiar object (Male Wistar rats [2]; 3 mg/kg): 8.21 ± 0.70 s; Exploration time Novel object (Male Wistar rats [2]; 3 mg/kg): 15.72 ± 2.25 s
Cn1cc(Cn2cc(C(=O)N[C@H]3CCCC[C@@H]3O)c3c(F)cccc32)cn1 [Example 1, N-[(1S,2S)-2-Hydroxycyclohexyl]-1-(1-methyl-1H-pyrazol-4-ylmethyl)-4-fluoro-1H-indole-3-carboxamide]				155 ± 6 % of vehicle	153 ± 7 % of vehicle	142 ± 6 % of vehicle	Active	1260	Active	11.31 ± 1.07	28.92 ± 3.54	Active	7.54 ± 1.93	13.07 ± 1.79				
O=C(N[C@H]1CCCC[C@@H]1O)c1cn(Cc2ccnc(Cl)c2)c2cccc(F)c12 [Example 2, N-[(1S,2S)-2-Hydroxycyclohexyl]-1-(2-chloropyridin-4-ylmethyl)-4-fluoro-1H-indole-3-carboxamide]								681				Active	14.29 ± 1.92	20.93 ± 2.89	Active	9.06 ± 1.75	15.09 ± 2.19	
Cn1cc(Cn2cc(C(=O)N[C@H]3CCCC[C@@H]3O)c3c(F)ccc(F)c32)cn1 [Example 5, N-[(1S,2S)-2-Hydroxycyclohexyl]-1-(1-methyl-1H-pyrazol-4-ylmethyl)-4,7-difluoro-1H-indole-3-carboxamide]	Active	13.61 ± 1.79	25.72 ± 3.67						Active	11.00 ± 0.81	19.64 ± 1.74							
O=C(N[C@H]1CCCC[C@@H]1O)c1cn(Cc2ccnc(F)c2)c2cccc(F)c12 [Example 7, N-[(1S,2S)-2-Hydroxycyclohexyl]-1-(2-fluoropyridin-4-ylmethyl)-4-fluoro-1H-indole-3-carboxamide]								1360							Active	9.16 ± 0.83	19.56 ± 1.96	
O=C(N[C@H]1CCCC[C@@H]1O)c1cn(Cc2ccnc(F)c2)c2c(F)ccc(F)c12 [Example 8, N-[(1S,2S)-2-Hydroxycyclohexyl]-1-(2-fluoropyridin-4-ylmethyl)-4,7-difluoro-1H-indole-3-carboxamide]				120 ± 17 % of vehicle	137 ± 14 % of vehicle	173 ± 10 % of vehicle	Active	192	Active	7.59 ± 1.02	14.36 ± 1.56							
